Assays:
hIP = biological target: T1, hIP (Homo sapiens, UniProt P43119); assay: FLIPR calcium signal, IP; assay type: cell-based; conditions: HEK-293(EBNA); for EC50: read-out: Ca2+ Signal-EC50 (nM) IP
T1 construct: expressed in transfected cells
Method: (§1) HEK-293(EBNA) cells, stably expressing one type or subtype of recombinant human prostaglandin receptors (prostaglandin receptors expressed: hDP/Gqs5; hEP1; hEP2/Gqs5; hEP3A/Gqi5; hEP4/Gqs5; hFP; hIP; hTP), were cultured in 100 mm culture dishes in high-glucose DMEM medium containing 10% fetal bovine serum, 2 mM 1-glutamine, 250 μg/ml geneticin (G418) and 200 μg/ml hygromycin B as selection markers, and 100 units/ml penicillin G, 100 μg/ml streptomycin and 0.25 μg/ml amphotericin B.
(§2) Cells were seeded at a density of 5×10^4 cells per well in Biocoat® Poly-D-lysine-coated black-wall, clear-bottom 96-well plates (Becton-Dickinson) and allowed to attach overnight in an incubator at 37° C. Cells were then washed two times with HBSS-HEPES buffer (Hanks Balanced Salt Solution without bicarbonate and phenol red, 20 mM HEPES, pH 7.4) using a Denley Cellwash plate washer (Labsystems). After 45 minutes of dye-loading in the dark, using the calcium-sensitive dye Fluo-4 AM at a final concentration of 2 μM, plates were washed four times with HBSS-HEPES buffer to remove excess dye leaving 100 μl in each well. Plates were re-equilibrated to 37° C. for a few minutes.
(§3) Cells were excited with an Argon laser at 488 nm, and emission was measured through a 510-570 nm bandwidth emission filter (FLIPR™, Molecular Devices, Sunnyvale, Calif.). Drug solution was added in a 50 μl volume to each well to give the desired final concentration. The peak increase in fluorescence intensity was recorded for each well. On each plate, four wells each served as negative (HBSS-HEPES buffer) and positive controls (standard agonists: BW245C (hDP); PGE2 (HEP1; hEP2/Gqs5; hEP3A/Gqi5; hEP4/Gqs5); PGF2α (hFP); carbacyclin (hIP); U-46619 (hTP), depending on receptor). The peak fluorescence change in each drug-containing well was then expressed relative to the controls.
(§4) Compounds were tested in a high-throughput (HTS) or concentration-response (CoRe) format. In the HTS format, forty-four compounds per plate were examined in duplicates at a concentration of 10^−5 M. To generate concentration-response curves, four compounds per plate were tested in duplicates in a concentration range between 10^−5 and 10^−11 M. The duplicate values were averaged. In either, HTS or CoRe format each compound was tested on at least 3 separate plates using cells from different passages to give an n≧3.

hFP = biological target: T2, hFP (Homo sapiens, UniProt P43088); assay: FLIPR calcium signal, FP; assay type: cell-based; conditions: HEK-293(EBNA)
T2 construct: expressed in transfected cells
T2 sequence (P43088 whole entry): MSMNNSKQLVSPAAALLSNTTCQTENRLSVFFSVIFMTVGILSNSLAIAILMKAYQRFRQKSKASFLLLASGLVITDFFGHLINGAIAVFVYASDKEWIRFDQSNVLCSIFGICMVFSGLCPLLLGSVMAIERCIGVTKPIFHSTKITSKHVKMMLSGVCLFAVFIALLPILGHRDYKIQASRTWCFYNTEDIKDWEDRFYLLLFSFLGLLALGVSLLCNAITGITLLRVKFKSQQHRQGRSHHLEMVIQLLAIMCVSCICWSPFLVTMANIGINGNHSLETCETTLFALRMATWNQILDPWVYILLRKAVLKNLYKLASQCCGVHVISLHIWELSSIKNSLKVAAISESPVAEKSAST
Method: as §1, §2, §3, §4

hEP4/Gqs5 = biological target: T3, hEP4/Gqs5 (Homo sapiens, UniProt P35408); assay: FLIPR calcium signal, EP4; assay type: cell-based; conditions: HEK-293(EBNA); for EC50: read-out: Ca2+ Signal-EC50 (nM) EP4
T3 construct: expressed in transfected cells
T3 sequence (P35408 whole entry): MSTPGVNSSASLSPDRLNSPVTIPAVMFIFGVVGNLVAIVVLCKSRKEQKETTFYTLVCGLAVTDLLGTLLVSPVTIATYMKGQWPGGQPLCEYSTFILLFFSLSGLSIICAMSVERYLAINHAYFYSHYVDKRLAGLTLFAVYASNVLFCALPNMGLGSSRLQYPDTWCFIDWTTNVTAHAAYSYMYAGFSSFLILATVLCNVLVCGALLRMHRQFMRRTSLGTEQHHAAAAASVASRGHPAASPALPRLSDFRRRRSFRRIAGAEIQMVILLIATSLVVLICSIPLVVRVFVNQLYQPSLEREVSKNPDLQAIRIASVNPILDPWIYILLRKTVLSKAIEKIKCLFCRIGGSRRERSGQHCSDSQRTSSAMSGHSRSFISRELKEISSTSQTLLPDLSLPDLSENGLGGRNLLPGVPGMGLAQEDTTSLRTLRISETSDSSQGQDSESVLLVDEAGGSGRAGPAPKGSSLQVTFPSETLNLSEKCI
Method: as §1, §2, §3, §4

hEP2/Gqs5 = biological target: T4, hEP2/Gqs5 (Homo sapiens, UniProt P43116); assay: FLIPR calcium signal, EP2; assay type: cell-based; conditions: HEK-293(EBNA), value outside parentheses, read-out: Ca2+ Signal-EC50 (nM) EP2
T4 construct: expressed in transfected cells
T4 sequence (P43116 whole entry): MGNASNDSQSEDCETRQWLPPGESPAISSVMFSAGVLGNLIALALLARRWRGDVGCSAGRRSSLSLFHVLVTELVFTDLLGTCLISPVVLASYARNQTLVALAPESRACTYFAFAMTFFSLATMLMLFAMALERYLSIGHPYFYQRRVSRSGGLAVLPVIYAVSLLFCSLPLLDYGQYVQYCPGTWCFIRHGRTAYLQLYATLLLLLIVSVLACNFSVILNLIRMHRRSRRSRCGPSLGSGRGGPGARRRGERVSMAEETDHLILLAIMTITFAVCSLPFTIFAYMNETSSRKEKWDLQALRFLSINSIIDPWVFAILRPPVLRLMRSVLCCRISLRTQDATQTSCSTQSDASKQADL
Method: as §1, §2, §3, §4

EP2 = EP2 (Homo sapiens, UniProt P43116); assay: Competition binding, [3H]PGE2, EP2 (Ki); parameters: expressed in transfected cells; membranes or whole cells; conditions: HEK 293 cells stably expressing human EP2, [3H]PGE2
Chain of EP2 (P43116 whole entry): as above
Method: Competition binding experiments were performed in a medium containing Hank's balanced salt solution, Hepes 20 mM, pH 7.3, membranes (˜60 μg protein) or 2×10^5 cells from HEK 293 cells stably expressing human EP2 receptors, [^3H]PGE2 (10 nM) and various concentrations of test compounds in a total volume of 300 μl. Reaction mixtures were incubated at 23° C. for 60 min, and were filtered over Whatman GF/B filters under vacuum. Filters were washed three times with 5 ml ice-cold buffer containing 50 mM Tris/HCl (pH 7.3). Non-specific binding was estimated in the presence of excess unlabeled PGE2 (10 μM). Binding data fitted to the binding model for a single class of binding sites, using nonlinear regression analysis. IC50 values thus obtained were converted to Ki using the equation of Ki=(IC50/(1+[L]/KD) where [L] represents PGE2 concentration (10 nM) and KD the dissociation constant for [^3H]PGE2 at human EP2 receptors (40 nM).
(§5) HEK-293 cells stably expressing the human or feline FP receptor, or EP1, EP2, or EP4 receptors were washed with TME buffer, scraped from the bottom of the flasks, and homogenized for 30 sec using a Brinkman PT 10/35 polytron. TME buffer was added to achieve a final 40 ml volume in the centrifuge tubes (the composition of TME is 100 mM TRIS base, 20 mM MgCl2, […]; 10N HCl is added to achieve a pH of 7.4).
(§6) The cell homogenate was centrifuged at 19000 r.p.m. for 20 min at 4° C using a Beckman Ti-60 rotor. The resultant pellet was resuspended in TME buffer to give a final 1 mg/ml protein concentration, as determined by Biorad assay. Radioligand binding competition assays vs. [^3H-]17-phenyl PGF2α. (5 nM) were performed in a 100 μl volume for 60 min. Binding reactions were started by adding plasma membrane fraction. The reaction was terminated by the addition of 4 ml ice-cold TRIS-HCl buffer and rapid filtration through glass fiber GF/B filters using a Brandel cell harvester. The filters were washed 3 times with ice-cold buffer and oven dried for one hour.
(§7) [^3H-] PGE2 (specific activity 180 Ci mmol) was used as the radioligand for EP receptors. [^3H] 17-phenyl PGF2α, was employed for FP receptor binding studies. Binding studies employing EP1, EP2, EP4 and FP receptors were performed in duplicate in at least three separate experiments. A 200 μl assay volume was used. Incubations were for 60 min at 25° C. and were terminated by the addition of 4 ml of ice-cold 50 mM TRIS-HCl, followed by rapid filtration through Whatman GF/B filters and three additional 4 ml washes in a cell harvester (Brandel). Competition studies were performed using a final concentration of 5 nM [^3H]-PGE2, or 5 nM [^3H] 17-phenyl PGF2αand non-specific binding determined with 10^−5M of unlabeled PGE2, or 17-phenyl PGF2α, according to receptor subtype studied.

EP4 receptors = biological target: T5, EP4 receptors (Homo sapiens, UniProt P35408); assay: Radioligand binding, [3H]PGE2, EP4 (Ki); conditions: HEK-293 cells stably expressing EP4, [3H]PGE2
T5 construct: expressed in transfected cells; membrane pellet
T5 sequence (P35408 whole entry): as the sequence (P35408 whole entry) above
Method: as §5, §6, §7

T1 sequence (P43119 whole entry): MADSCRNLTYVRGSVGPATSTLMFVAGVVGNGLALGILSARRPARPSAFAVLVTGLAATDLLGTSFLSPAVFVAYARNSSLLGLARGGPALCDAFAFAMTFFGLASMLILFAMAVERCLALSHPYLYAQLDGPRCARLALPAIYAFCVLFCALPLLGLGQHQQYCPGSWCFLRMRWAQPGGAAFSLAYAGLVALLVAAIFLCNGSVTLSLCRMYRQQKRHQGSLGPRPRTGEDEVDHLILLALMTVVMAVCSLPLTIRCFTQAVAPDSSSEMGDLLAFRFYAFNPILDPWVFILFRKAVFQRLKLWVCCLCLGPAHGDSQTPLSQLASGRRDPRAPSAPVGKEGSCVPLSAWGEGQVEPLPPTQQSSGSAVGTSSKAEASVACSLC

SMILES | EC50 (hIP) | Ca2+ Signal-EC50 (nM) FP (hFP) | Ca2+ Signal-EC50 (nM) EP4 (hEP4/Gqs5) | EC50 (hEP2/Gqs5) | Ki (EP2) | Ki (EP4 receptors) | Ca2+ Signal-EC50 (nM) IP (hIP) | EC50 (hEP4/Gqs5)
O=C(O)CCC/C=C\C[C@@H]1[C@@H](c2ccc(C(O)CC3CCCCC3)cc2)[C@H](O)C[C@H]1Cl (mixture of isomers) [Entry 17, (Z)-7-{(1R,2S,3R,5R)-5-Chloro-2-[4-(2-cyclohexyl-1-hydroxy-ethyl)-phenyl]-3-hydroxy-cyclopentyl}-hept-5-enoic acid] | – | not active | not active | 953 nM | 483 nM | 15900 nM | not active | –
CC(C)(C)CCCC(O)c1ccc([C@@H]2[C@@H](CCCCCCC(=O)O)[C@H](Cl)C[C@H]2O)cc1 (mixture of isomers) [Entry 20, 7-{(1R,2S,3R,5R)-5-Chloro-3-hydroxy-2-[4-(1-hydroxy-5,5-dimethyl-hexyl)-phenyl]-cyclopentyl}-heptanoic acid] | – | not active | – | 5390 nM | 3850 nM | 3800 nM | not active | 10700 nM
O=C(O)CCC/C=C\C[C@@H]1[C@@H](c2ccc(C(O)Cc3ccccc3)cc2)[C@H](O)C[C@H]1Cl (mixture of isomers) [Entry 21, (Z)-7-{(1R,2S,3R,5R)-5-Chloro-3-hydroxy-2-[4-(1-hydroxy-2-phenyl-ethyl)-phenyl]-cyclopentyl}-hept-5-enoic acid] | – | not active | – | 9 nM | 77 nM | > 10000 nM | not active | > 10000 nM
CCCCC(O)C(C)(C)c1ccc([C@@H]2[C@@H](C/C=C\CCCC(=O)O)[C@H](Cl)C[C@H]2O)cc1 (mixture of isomers) [Entry 32, (Z)-7-{(1R,2S,3R,5R)-5-Chloro-3-hydroxy-2-[4-(2-hydroxy-1,1-dimethyl-hexyl)-phenyl]-cyclopentyl}-hept-5-enoic acid] | – | not active | not active | 164 nM | 225 nM | 9640 nM | not active | –
CCCCCC(O)c1ccc([C@@H]2[C@@H](Cc3cccc(CCC(=O)O)c3)[C@H](Cl)C[C@H]2O)cc1 (stereo partly drawn) [Entry 3, 3-(3-{(1R,2S,3R,5R)-5-Chloro-3-hydroxy-2-[4-(1-hydroxy-hexyl)-phenyl]-cyclopentylmethyl}-phenyl)-propionic acid] | – | not active | – | 158 nM | 2780 nM | 3950 nM | not active | –
CCCCCC(O)c1ccc([C@@H]2[C@@H](CCCc3ncc(C(=O)O)s3)[C@H](Cl)C[C@H]2O)cc1 (stereo partly drawn) [Entry 5, 2-(3-{(1R,2S,3R,5R)-5-Chloro-3-hydroxy-2-[4-(1-hydroxy-hexyl)-phenyl]-cyclopentyl}-propyl)-thiazole-5-carboxylic acid] | – | not active | – | 619 nM | 6170 nM | – | not active | > 10000 nM

Other lines, results leading:

EC50 (hIP) | Ca2+ Signal-EC50 (nM) FP (hFP) | Ca2+ Signal-EC50 (nM) EP4 (hEP4/Gqs5) | EC50 (hEP2/Gqs5) | Ki (EP2) | Ki (EP4 receptors) | Ca2+ Signal-EC50 (nM) IP (hIP) | EC50 (hEP4/Gqs5) | SMILES
10100 nM | not active | not active | 53 nM | 804 nM | > 10000 nM | – | – | CCCCCC(O)c1ccc([C@@H]2[C@@H](C/C=C\CCCC(=O)O)[C@H](F)C[C@H]2O)cc1 (mixture of isomers) [Entry 8, (Z)-7-{(1R,2S,3R,5R)-5-Fluoro-3-hydroxy-2-[4-(1-hydroxy-hexyl)-phenyl]-cyclopentyl}-hept-5-enoic acid]
– | not active | – | 7 nM | 209 nM | > 10000 nM | not active | > 10000 nM | CCCCCC(O)c1ccc([C@@H]2[C@@H](C/C=C\CCCC(=O)O)[C@H](Cl)C[C@H]2O)cc1 (mixture of isomers) [Entry 11, (Z)-7-{(1R,2S,3R,5R)-5-Chloro-3-hydroxy-2-[4-(1-hydroxy-hexyl)-phenyl]-cyclopentyl}-hept-5-enoic acid]
– | not active | not active | – | 589 nM | – | not active | – | CCCCC(O)c1ccc([C@@H]2[C@@H](C/C=C\CCCC(=O)O)[C@H](Cl)C[C@H]2O)cc1 (mixture of isomers) [Entry 27, (Z)-7-{(1R,2S,3R,5R)-5-Chloro-3-hydroxy-2-[4-(1-hydroxy-pentyl)-phenyl]-cyclopentyl}-hept-5-enoic acid]
– | not active | – | 36 nM | 209 nM | > 10000 nM | not active | > 10000 nM | CCCCCC(O)c1ccc([C@@H]2[C@@H](C/C=C\CCCC(=O)O)[C@H](Cl)C[C@H]2O)cc1 (single isomer, unassigned) [Entry 12]
– | not active | – | 11 nM | 73 nM | > 10000 nM | not active | > 10000 nM | CCCCCC(O)c1ccc([C@@H]2[C@@H](C/C=C\CCCC(=O)O)[C@H](Cl)C[C@H]2O)cc1 (single isomer, unassigned) [Entry 13]
3280 nM | not active | not active | 16 nM | 12 nM | – | – | – | CCCCCC(O)c1ccc([C@@H]2[C@@H](C/C=C\CCCC(=O)O)[C@H](Cl)C[C@@H]2O)cc1 (stereo partly drawn) [Entry 34, (Z)-7-{(1R,2S,3S,5R)-5-Chloro-3-hydroxy-2-[4-(1-hydroxy-hexyl)-phenyl]-cyclopentyl}-hept-5-enoic acid]

— US7585895B2, “Therapeutic substituted cyclopentanes” (Allergan, Inc., priority 2005, dated 2009)
